Experimental data reported in US10752624B2, “Kinase inhibitors” (Origenis GmbH, priority 2012, dated 2020).

Columns and labels:
LRRK2 = LRRK2 (Homo sapiens, UniProt Q5S007); assay: LRRK2-LRRK2 G2019S-Assay (LanthaScreen Eu Kinase Binding Assay); details: 5 nM LRRK2, 10 nM tracer 236, 2 nM EU-Anti-GST antibody, 1 h at RT; read-out: LRRK2 Activities: IC50
Method in brief: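 In a TR-FRET tracer displacement assay, LRRK2 or its mutants at 5 nM were mixed with 2 nM Eu-anti-GST antibody and 10 nM tracer 236 in kinase buffer A for 1 h at RT. The 665/615 nm emission ratio was plotted against inhibitor concentration, and IC50 came from a variable-slope sigmoidal fit.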

SYK kinase = target: T1, SYK kinase (Homo sapiens, UniProt P43405); assay: SYK Assay (OMNIA Kinase Assay, SOX peptide fluorescence); type: biochemical; details: 1 mM ATP, 10 μM Omnia Peptide Substrate Tyr 7, 30° C., readings for 30 minutes; read-out: SYK Activities: IC50
T1 construct: purchased Invitrogen, Carlsbad
Method in brief: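 The reaction was run at 30 °C with 1 mM ATP, 0.2 mM DTT and 10 μM Omnia Tyr 7 peptide (final) and started by adding SYK. Chelation-enhanced SOX fluorescence (ex 360/em 485 nm) was read every 30 s for 30 min. Reaction velocity versus inhibitor concentration was fitted sigmoidally for IC50.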

Chain of LRRK2 (Q5S007 970-2527 limits assumed): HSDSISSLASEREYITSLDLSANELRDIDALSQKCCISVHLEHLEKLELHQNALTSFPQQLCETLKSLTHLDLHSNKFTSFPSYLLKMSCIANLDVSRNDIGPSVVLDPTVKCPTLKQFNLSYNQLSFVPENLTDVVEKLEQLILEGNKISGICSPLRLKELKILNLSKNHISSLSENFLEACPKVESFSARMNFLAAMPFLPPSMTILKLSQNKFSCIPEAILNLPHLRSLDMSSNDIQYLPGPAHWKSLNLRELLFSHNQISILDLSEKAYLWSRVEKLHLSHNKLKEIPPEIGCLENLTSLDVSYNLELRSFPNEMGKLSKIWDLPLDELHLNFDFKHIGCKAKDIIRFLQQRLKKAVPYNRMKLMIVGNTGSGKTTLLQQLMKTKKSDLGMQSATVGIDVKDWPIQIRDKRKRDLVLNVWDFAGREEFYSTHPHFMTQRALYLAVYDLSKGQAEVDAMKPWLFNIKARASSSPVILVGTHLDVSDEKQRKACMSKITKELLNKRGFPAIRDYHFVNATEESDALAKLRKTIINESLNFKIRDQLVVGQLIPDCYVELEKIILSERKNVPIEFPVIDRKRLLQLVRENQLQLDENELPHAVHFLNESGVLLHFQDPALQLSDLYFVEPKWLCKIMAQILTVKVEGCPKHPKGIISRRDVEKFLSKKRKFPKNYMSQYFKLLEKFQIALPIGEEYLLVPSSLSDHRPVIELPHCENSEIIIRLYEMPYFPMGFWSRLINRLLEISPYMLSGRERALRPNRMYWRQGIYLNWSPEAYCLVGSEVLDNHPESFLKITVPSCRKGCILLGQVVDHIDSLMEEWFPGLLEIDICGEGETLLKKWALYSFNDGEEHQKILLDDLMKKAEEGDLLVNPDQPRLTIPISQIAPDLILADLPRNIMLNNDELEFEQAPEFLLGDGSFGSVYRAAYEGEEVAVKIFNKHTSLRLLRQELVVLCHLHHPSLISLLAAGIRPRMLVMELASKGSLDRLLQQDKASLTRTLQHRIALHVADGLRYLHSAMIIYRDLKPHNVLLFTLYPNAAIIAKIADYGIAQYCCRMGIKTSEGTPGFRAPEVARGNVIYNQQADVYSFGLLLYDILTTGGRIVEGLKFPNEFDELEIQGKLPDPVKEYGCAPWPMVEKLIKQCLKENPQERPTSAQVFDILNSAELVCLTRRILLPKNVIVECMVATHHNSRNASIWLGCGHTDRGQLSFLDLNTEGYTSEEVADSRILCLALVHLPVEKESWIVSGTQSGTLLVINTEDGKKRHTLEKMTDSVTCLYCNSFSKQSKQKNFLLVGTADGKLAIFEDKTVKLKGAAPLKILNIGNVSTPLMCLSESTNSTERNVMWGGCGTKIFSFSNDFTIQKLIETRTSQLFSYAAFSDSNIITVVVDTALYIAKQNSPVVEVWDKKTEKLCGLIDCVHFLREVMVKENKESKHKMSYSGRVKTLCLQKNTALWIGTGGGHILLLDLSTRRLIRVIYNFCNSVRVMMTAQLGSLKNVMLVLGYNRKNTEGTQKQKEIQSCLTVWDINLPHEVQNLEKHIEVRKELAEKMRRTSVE

| SMILES | IC50 (LRRK2) | IC50 (SYK kinase) |
| --- | --- | --- |
| CC(C(=O)O)n1cc(Nc2nc3ccc(S(C)(=O)=O)cc3c3c[nH]nc23)cn1 (centres unmarked) [Example 334, 2-(4-((8-(methylsulfonyl)-2H-pyrazolo[3,4-c]quinolin-4-yl)amino)-1H-pyrazol-1-yl)propanoic acid] | 10 to 100 nM | 10 to 100 nM |
| CSc1ccc2nc(Nc3ccc4c(c3)NC(=O)CC4)c3[nH]ncc3c2c1 [Example 47, 7-((8-(methylthio)-3H-pyrazolo[3,4-c]quinolin-4-yl)amino)-3,4-dihydroquinolin-2(1H)-one] | < 10 nM | < 10 nM |
| COc1cc(OC)c2nc(Nc3cnn(C4CCOCC4)c3)c3[nH]ncc3c2c1 [Example 289, 6,8-dimethoxy-N-(1-(tetrahydro-2H-pyran-4-yl)-1H-pyrazol-4-yl)-3H-pyrazolo[3,4-c]quinolin-4-amine] | 10 to 100 nM | 100 to 1000 nM |
| COc1ccc2nc(Nc3ccc(N4CCC(N5CCN(C)CC5)CC4)cc3)c3n[nH]cc3c2c1 [Example 3, 8-methoxy-N-(4-(4-(4-methylpiperazin-1-yl)piperidin-1-yl)phenyl)-2H-pyrazolo[3,4-c]quinolin-4-amine] | 10 to 100 nM | 100 to 1000 nM |
| CC(C)(C)n1cc(Nc2nc3cc(S(C)(=O)=O)ccc3c3cn[nH]c23)cn1 [Example 188, N-(1-(tert-butyl)-1H-pyrazol-4-yl)-7-(methylsulfonyl)-3H-pyrazolo[3,4-c]quinolin-4-amine] | 10 to 100 nM | 100 to 1000 nM |
| CS(=O)(=O)c1cccc2nc(Nc3ccc4c(c3)NC(=O)CCC4)c3[nH]ncc3c12 [Example 98, 8-((9-(methylsulfonyl)-3H-pyrazolo[3,4-c]quinolin-4-yl)amino)-4,5-dihydro-1H-benzo[b]azepin-2(3H)-one] | 10 to 100 nM | 100 to 1000 nM |
| CS(=O)(=O)c1ccc2nc(Nc3cnn(C4CCCOC4)c3)c3n[nH]cc3c2c1 (centres unmarked) [Example 323, 8-(methylsulfonyl)-N-(1-(tetrahydro-2H-pyran-3-yl)-1H-pyrazol-4-yl)-2H-pyrazolo[3,4-c]quinolin-4-amine] | 10 to 100 nM | 10 to 100 nM |
| CS(=O)(=O)c1ccc2nc(Nc3ccc4c(c3)NC(=O)CS4)c3n[nH]cc3c2c1 [Example 344, 6-((8-(methylsulfonyl)-2H-pyrazolo[3,4-c]quinolin-4-yl)amino)-2H-benzo[b][1,4]thiazin-3(4H)-one] | 10 to 100 nM | < 10 nM |
| CCc1cccc(Nc2nc3ccc(S(C)(=O)=O)cc3c3c[nH]nc23)c1 [Example 333, N-(3-ethylphenyl)-8-(methylsulfonyl)-2H-pyrazolo[3,4-c]quinolin-4-amine] | 10 to 100 nM | 100 to 1000 nM |
| COc1cccc2nc(Nc3cnn(C4CCN(C(C)(C)C)CC4)c3)c3[nH]ncc3c12 [Example 206, N-(1-(1-(tert-butyl)piperidin-4-yl)-1H-pyrazol-4-yl)-9-methoxy-3H-pyrazolo[3,4-c]quinolin-4-amine] | < 10 nM | 10 to 100 nM |
| CSc1ccc2nc(Nc3ccc(CN(C)C)cc3)c3[nH]ncc3c2c1 [Example 48, N-(4-((dimethylamino)methyl)phenyl)-8-(methylthio)-3H-pyrazolo[3,4-c]quinolin-4-amine] | 10 to 100 nM | 10 to 100 nM |
| CC(C)n1cc(Nc2nc3ccc(S(C)(=O)=O)cc3c3cn[nH]c23)c(C#N)n1 [Example 246, 1-isopropyl-4-((8-(methylsulfonyl)-3H-pyrazolo[3,4-c]quinolin-4-yl)amino)-1H-pyrazole-3-carbonitrile] | 10 to 100 nM | 100 to 1000 nM |
| CS(=O)(=O)c1ccc2nc(Nc3cnn(C4(C#N)CCCCC4)c3)c3[nH]ncc3c2c1 [Example 179, 1-(4-((8-(methylsulfonyl)-3H-pyrazolo[3,4-c]quinolin-4-yl)amino)-1H-pyrazol-1-yl)cyclohexanecarbonitrile] | < 10 nM | 10 to 100 nM |
| COc1cccc2nc(Nc3cnn(C4CCNCC4)c3)c3[nH]ncc3c12 [Example 236, 9-methoxy-N-(1-(piperidin-4-yl)-1H-pyrazol-4-yl)-3H-pyrazolo[3,4-c]quinolin-4-amine] | < 10 nM | 10 to 100 nM |

Results, then the molecule that gave them:

| IC50 (LRRK2) | IC50 (SYK kinase) | SMILES |
| --- | --- | --- |
| 10 to 100 nM | 10 to 100 nM | CC(C)Cn1cc(Nc2nc3cc(S(C)(=O)=O)ccc3c3cn[nH]c23)cn1 [Example 192, N-(1-isobutyl-1H-pyrazol-4-yl)-7-(methylsulfonyl)-3H-pyrazolo[3,4-c]quinolin-4-amine] |
| 10 to 100 nM | < 10 nM | CS(=O)(=O)c1ccc2nc(Nc3cnn(C4COC4)c3)c3[nH]ncc3c2c1 [Example 173, 8-(methylsulfonyl)-N-(1-(oxetan-3-yl)-1H-pyrazol-4-yl)-3H-pyrazolo[3,4-c]quinolin-4-amine] |
| < 10 nM | 10 to 100 nM | CS(=O)(=O)c1ccc2c(c1)nc(Nc1cnn(CCO)c1)c1[nH]ncc12 [Example 193, 2-(4-((7-(methylsulfonyl)-3H-pyrazolo[3,4-c]quinolin-4-yl)amino)-1H-pyrazol-1-yl)ethan-1-ol] |
| < 10 nM | 10 to 100 nM | COc1ccc2nc(Nc3cnn(C(C)(C)C#N)c3)c3[nH]ncc3c2c1 [Example 301, 2-(4-((8-methoxy-3H-pyrazolo[3,4-c]quinolin-4-yl)amino)-1H-pyrazol-1-yl)-2-methylpropanenitrile] |
| < 10 nM | < 10 nM | CS(=O)(=O)c1ccc2nc(Nc3cnn(CCF)c3)c3[nH]ncc3c2c1 [Example 221, N-(1-(2-fluoroethyl)-1H-pyrazol-4-yl)-8-(methylsulfonyl)-3H-pyrazolo[3,4-c]quinolin-4-amine] |
| < 10 nM | 100 to 1000 nM | COc1cccc2nc(Nc3cnn(CCF)c3)c3[nH]ncc3c12 [Example 253, N-(1-(2-fluoroethyl)-1H-pyrazol-4-yl)-9-methoxy-3H-pyrazolo[3,4-c]quinolin-4-amine] |
| 10 to 100 nM | 100 to 1000 nM | COc1ccc2nc(Nc3cnn(CC(C)C)c3)c3[nH]ncc3c2c1 [Example 285, N-(1-isobutyl-1H-pyrazol-4-yl)-8-methoxy-3H-pyrazolo[3,4-c]quinolin-4-amine] |
| 100 to 1000 nM | 10 to 100 nM | CC(C)(O)Cn1cc(Nc2nc3cc(S(C)(=O)=O)ccc3c3cn[nH]c23)cn1 [Example 329, 2-methyl-1-(4-((7-(methylsulfonyl)-3H-pyrazolo[3,4-c]quinolin-4-yl)amino)-1H-pyrazol-1-yl)propan-2-ol] |
| < 10 nM | 100 to 1000 nM | COCC(COC)n1cc(Nc2nc3cccc(OC)c3c3cn[nH]c23)cn1 [Example 340, N-(1-(1,3-dimethoxypropan-2-yl)-1H-pyrazol-4-yl)-9-methoxy-3H-pyrazolo[3,4-c]quinolin-4-amine] |
| < 10 nM | 10 to 100 nM | C=C(C)Cn1cc(Nc2nc3ccc(S(C)(=O)=O)cc3c3cn[nH]c23)cn1 [Example 264, N-(1-(2-methylallyl)-1H-pyrazol-4-yl)-8-(methylsulfonyl)-3H-pyrazolo[3,4-c]quinolin-4-amine] |
| < 10 nM | < 10 nM | CS(=O)(=O)c1ccc2nc(Nc3cnn(C4CC4)c3)c3[nH]ncc3c2c1 [Example 203, N-(1-cyclopropyl-1H-pyrazol-4-yl)-8-(methylsulfonyl)-3H-pyrazolo[3,4-c]quinolin-4-amine] |
